Assay results from patent publication US5734081A, “Arylthio compounds” (Warner-Lambert Company, priority 1995, dated 1998).

What was measured:
[1] = molecular target: T1, HIV-1 Nucleocapsid Protein (NCp7) (Human immunodeficiency virus type 1 group M subtype B, UniProt P12493); assay: Zinc extrusion assay (TSQ fluorescence) from the zinc fingers of HIV-1 nucleocapsid protein (NCp7); format: biochemical
T1 construct: The NCp7 protein containing 2 Zn-fingers and 2 Zn ions is incubated with drug
Source text: The compounds of the present invention cause the extrusion of zinc from the nucleocapsid protein (NCp7) of HIV-1. The NC protein is highly conserved among all retroviruses (South T., Blake P., et al., Biochemistry, 1990;29:7786) and is essential for viral infectivity (Aldovini A. and Young R., J. Virology, 1990;64:1920 and Gorelick R., Nigida S., et al., J. Virology, 1990;64:3207). The zinc is normally held in NC proteins by 1 or 2 zinc fingers. In the case of HIV-1, 2 zinc fingers are present (Summers M., South T., et al., Biochemistry, 1990;29:329) and are involved specifically with the PSI site on viral RNA which controls the packaging of viral RNA. Interference of this packaging causes the formation of non-infectious virions (Dannull J., Surovoy A., et al., EMBO, 1994;13:1525). It has previously been shown that compounds that cause zinc extrusion have potent anti-HIV activity in multiple cell lines and against all retroviruses (Rice W., Schaeffer C., et al., Nature, 1993;361:473).
A fluorescence-based assay has been developed to monitor the ejection of zinc from purified HIV-1 NCp7. The fluorophore, N-(6-methoxy-8-quinolyl)-p-toluenesulfonamide (TSQ), has an increased fluorescent signal upon bonding zinc ion in solution. The NCp7 protein containing 2 Zn-fingers and 2 Zn ions is incubated with drug causing the extrusion of Zn ions. The released Zn is then sequestered by the TSQ and the increased fluorescence monitored relative to control. […] Fluorescence (excitation 355 nm emission 400 nm) was monitored versus time. Controls were the NCp7 under assay conditions without drug, and apo NCp7 (no Zn) with drug. The % Zn extrusion was calculated based on the actual fluorescence measured divided by the fluorescence of all theoretical Zn extruded (5.6 μM)×100.
Table 1 below presents data for several invention compounds evaluated in the zinc extrusion assay described above.

HIV-1 = assay: CEM cell assay, anti-HIV-1 activity; format: cell-based; settings: Human immunodeficiency virus 1, CCRF-CEM, HIV-1, 6 or 7 days, read-out: EC50 (Effective Concentration which protects cells from viral cytopathic effects)
Source text: The test systems utilized to establish the antiviral activity of the arylthio compounds of this invention are well recognized in the art and are routinely employed for such purpose. For example, the assay utilized to evaluate the compounds activity against the HIV virus is that employed by the U.S. National Cancer Institute as described by Weislow O. S., et al., J. Natl. Cancer Inst., 1989;81:577-586, incorporated herein by reference.
The procedure is designed to detect agents acting at any stage of the virus reproductive cycle. The assay basically involves the killing of T4 lymphocytes by HIV. Small amounts of HIV are added to cells, and at least two complete cycles of virus reproduction are necessary to obtain the required cell killing. Agents which interact with virions, cells, or virus gene-products to interfere with viral activities will protect cells from cytolysis. The system is automated in several features to accommodate large numbers of candidate agents, and is generally designed to detect anti-HIV activity. However, compounds which degenerate or are rapidly metabolized in the culture conditions may not show activity in this screen.
(§1) Yet another test system employed to determine antiviral activity is called the CEM cell assay.
(§2) T4 lymphocytes (CEM cell line) are exposed to HIV at a virus to cell ratio approximately 0.05, and plated along with noninfected control cells in 96-well microliter plates.
(§3) The candidate agent is dissolved in dimethyl sulfoxide (unless otherwise noted), then diluted 1:200 in cell culture medium. Further dilutions (half-log10) are prepared before adding to an equal volume of medium containing either infected or noninfected cells. Cultures are incubated at 37° in a 5% carbon dioxide atmosphere for 6 or 7 days. The tetrazolium salt, XTT, is added to all wells, and cultures are incubated to allow formazan color development by viable cells (J. National Cancer Institute, 1989;81:577-586). Individual wells are analyzed spectrophotometrically to quantitate formazan production, and in addition are viewed microscopically for detection of viable cells confirmation of protective activity.
(§4) Drug-tested virus-infected cells are compared with drug-treated noninfected cells and with other appropriate controls (untreated infected and untreated noninfected cells, drug-contain wells without cells, etc.) on the same plate. Data are reviewed in comparison with other tests done at the same time and a determination about activity is made.

[2] = CEM cell growth inhibition (XTT, noninfected cells); format: cell-based; settings: human, CEM Cell Assay, drug alone, read-out: IC50 (Inhibitory Concentration where drug alone inhibits cell growth)
Experimental: as §1, §2, §3, §4

[3] = 10 μM compound, 2.8 μM NCp7, pH 7.4, 26° C., 90 minutes

Compound	% Zinc Extrusion Relative to Control [1, 3]	EC50 (HIV-1)	CC50 [2]	% Zinc Extrusion Relative to Control ([1]; EDTA, 24 hours)
CC(C)NS(=O)(=O)c1ccc(NC(=O)c2ccccc2SSc2ccccc2C(=O)Nc2ccc(S(=O)(=O)NC(C)C)cc2)cc1 [Example 3, 2,2'-Dithiobis-N-[4[[(1-methylethyl)amino]sulfonyl]phenyl]benzamide]	73%	–	–	–
NS(=O)(=O)c1ccc(NC(=O)c2cccnc2SSc2ncccc2C(=O)Nc2ccc(S(N)(=O)=O)cc2)cc1 [Example 25, 2,2'-Dithiobis[N-[4-(aminosulfonyl)phenyl]-3-pyridinecarboxamide]]	73%	–	–	–
COc1ccc(SSc2ccc(OC)cc2C(N)=O)c(C(N)=O)c1 [Example 70, 2,2'-Dithiobis[5-methoxy-benzamide]]	74%	–	–	–
NS(=O)(=O)c1ccc(NS(=O)(=O)c2ccccc2SSc2ccccc2S(=O)(=O)Nc2ccc(S(N)(=O)=O)cc2)cc1 [Example 145]	65%	–	–	–
CC(C)(SSc1ccccc1C(=O)Nc1ccc(S(N)(=O)=O)cc1)C(N)C(=O)O (stereo not shown) [Example 138, 2-Amino-3-methyl-3-[2-(4-sulfamoylphenylcarbamoyl)phenyldisulfanyl]-butyric acid]	–	6.3 µM	66 µM	–
Cc1ccc(SSc2ccc(C)cc2C(=O)Nc2ccc(S(N)(=O)=O)cc2)c(C(=O)Nc2ccc(S(N)(=O)=O)cc2)c1 [Example 23, 2,2'-Dithiobis[N-[4-(aminosulfonyl)phenyl]-5-methylbenzamide]]	–	4.3 µM	> 100 µM	–
CC(=O)Nc1ccc(SSc2ccc(NC(C)=O)cc2C(=O)N[C@@H](CC(C)C)C(=O)O)c(C(=O)N[C@@H](CC(C)C)C(=O)O)c1 [Example 60, [S-(R*,R*)]2-{5-Acetylamino-2-[4-acetylamino-2-(1-carboxy-3-methyl-butylcarbamoyl)-phenyldisulfanyl]-benzoylamino}-4-methyl-pentanoic acid]	65%	–	–	–
O=C(c1ccccc1SSc1ccccc1C(=O)N1CCSCC1)N1CCSCC1 [Example 113, {2-[2-(Thiomorpholine-4-carbonyl)-phenyldisulfanyl]phenyl}-thiomorpholin-4-yl-methanone]	67%	–	–	–
CS(=O)(=O)c1ccc(NC(=O)c2ccccc2SSc2ccccc2C(=O)Nc2ccc(S(C)(=O)=O)cc2)cc1 [Example 94, 2,2'-Dithiobis[N-[4-(methylsulfonyl)phenyl]benzamide]]	62%	–	–	–
CC(C)(C)C(=O)Nc1ccc(SSc2ccc(NC(=O)C(C)(C)C)cc2C(N)=O)c(C(N)=O)c1 [Example 73, 2,2'-Dithiobis[5-[(2,2-dimethyl-1-oxopropyl)amino]benzamide]]	–	5 µM	70 µM	–
COc1ccc(C(=O)Nc2ccc(S(N)(=O)=O)cc2)c(SSc2cc(OC)ccc2C(=O)Nc2ccc(S(N)(=O)=O)cc2)c1 [Example 19, 2,2'-Dithiobis[N-[4-(aminosulfonyl)phenyl]-4-methoxybenzamide]]	–	2.4 µM	> 100 µM	–
COc1ccc(C(=O)N[C@@H](CC(C)C)C(=O)O)c(SSc2cc(OC)ccc2C(=O)N[C@@H](CC(C)C)C(=O)O)c1 [Example 54, [S-(R*,R*)]2-{2-[2-(1-Carboxy-3-methyl-butyl]carbamoyl)-5-methoxy-phenyldisulfanyl]-4-methoxybenzoylamino}-4-methyl-pentanoic acid]	–	6.9 µM	75 µM	–
O=C(c1ccccc1)c1ccccc1SSc1ccccc1C(=NO)c1ccccc1 [Example 150, {2-[2-(hydroxyimino-phenyl-methyl)-phenyldisulfanyl]phenyl}-phenyl-methanon]	36%	–	–	–
Cc1ccc(C(=O)N[C@@H](CC(C)C)C(=O)O)c(SSc2cc(C)ccc2C(=O)N[C@@H](CC(C)C)C(=O)O)c1 [Example 57, [S-(R*,R*)]2-{2-[2-(1-Carboxy-3-methyl-butylcarbamoyl)-5-methyl-phenyldisulfanyl]-4-methylbenzoylamino}-4-methyl-pentanoic acid]	–	6 µM	71 µM	–
O=C(O)C[C@H](NC(=O)c1ccccc1SSc1ccccc1C(=O)N[C@@H](CC(=O)O)C(=O)O)C(=O)O [Example 62, L,L-2-{2-[2-(1,2-Dicarboxy-ethylcarbamoyl)-phenyldisulfanyl]-benzoylamino}-succinic acid]	73%	–	–	–
O=C(O)CN(CCN(CC(=O)O)CC(=O)O)CC(=O)O [EDTA, reference compound]	–	–	–	10%
CC(C)C[C@H](NC(=O)c1ccc(F)cc1SSc1cc(F)ccc1C(=O)N[C@@H](CC(C)C)C(=O)O)C(=O)O [Example 51, [S-(R*,R*)]2-{2-[2-(1-Carboxy-3-methyl-butylcarbamoyl)-5-fluoro-phenyldisulfanyl]-4-fluorobenzoylamino}-4-methyl-pentanoic acid]	–	8.4 µM	64 µM	–
NS(=O)(=O)c1ccccc1NC(=O)c1ccccc1SSc1ccccc1C(=O)Nc1ccccc1S(N)(=O)=O [Example 102, 2,2'-Dithiobis[N-[2-(aminosulfonyl)phenyl]benzamide]]	–	1.7 µM	68 µM	–
O=C(O)c1ccc(NC(=O)c2ccccc2SSc2ccccc2C(=O)Nc2ccc(C(=O)O)cc2)cc1 [Example 106, 4,4'-[dithiobis(2,1-phenylenecarbonylimino)bisbenzoic acid]]	–	1.8 µM	22 µM	–
COc1cccc(C(=O)Nc2ccc(S(N)(=O)=O)cc2)c1SSc1c(OC)cccc1C(=O)Nc1ccc(S(N)(=O)=O)cc1 [Example 18, 2,2'-Dithiobis[N-[4-(aminosulfonyl)phenyl]-3-methoxybenzamide]]	67%	–	–	–
Cc1cccc(C(=O)N[C@@H](CC(C)C)C(=O)O)c1SSc1c(C)cccc1C(=O)N[C@@H](CC(C)C)C(=O)O [Example 56, [S-(R*,R*)]2-{2-[2-(1-Carboxy-3-methyl-butylcarbamoyl)-6-methyl-phenyldisulfanyl]-3-methyl-benzoylamino}-4-methyl-pentanoic acid]	73%	–	–	–
O=C(O)Cc1ccc(NC(=O)c2ccccc2SSc2ccccc2C(=O)Nc2ccc(CC(=O)O)cc2)cc1 [Example 108, (4-{2-[2-(4-Carboxymethyl-phenylcarbamoyl)-phenyldisulfanyl]-benzoylamino}-phenyl)-acetic acid]	–	5.9 µM	61 µM	–
COC(=O)c1ccccc1SSc1ccccc1C(=O)Nc1ccc(S(N)(=O)=O)cc1 [Example 137, 2-[2-(4-Sulfamoylphenylcarbamoyl)phenyldisulfanyl]benzoic acid, methyl ester]	–	8.6 µM	65 µM	–
CC(C)(C)[C@H](NC(=O)c1ccccc1SSc1ccccc1C(=O)N[C@H](C(=O)O)C(C)(C)C)C(=O)O [Example 48, L,L-2-{2-[2-(1-Carboxy-2,2-dimethyl-propylcarbamoyl)-phenyldisulfanyl]-benzoylamino}-3,3-dimethyl-butyric acid]	–	18 µM	> 100 µM	–
O=C(Nc1ccc(Cl)cc1Cl)c1ccccc1SSc1ccccc1C(=O)Nc1ccc(Cl)cc1Cl [Example 84, 2,2'-Dithiobis[N-(2,4-dichlorophenyl)benzamide]]	50%	–	–	–
